What was measured:
[1] = tested on: downmodulation of MHC-I molecules expressed on the surface of HIV infected SupT1 cells; assay: cells; settings: for EC50: Human immunodeficiency virus 1, SUP-T1, read-out: EC50 for inhibition of MHC-I downmodulation utilizing the R1 parameter; for activity at 100 µM: Human immunodeficiency virus 1, SUP-T1, read-out: R1 @ 100 μM (R1 value for MHC-I downmodulation as % of the vehicle control)
in vitro = settings: human, uninfected SupT1 cells

| SMILES | EC50 [1] | CC50 at 48 h (in vitro) | activity at 100 µM [1] | CC50 (in vitro) |
| --- | --- | --- | --- | --- |
| Cc1ccc(N(C(=O)COc2cccc3c2OC(C)(C)C3)c2ccc(C)nn2)cc1 [Compound 88, 2-((2,2-Dimethyl-2,3-dihydrobenzofuran-7-yl)oxy)-N-(6-methylpyridazin-3-yl)-N-(p-tolyl)acetamide] | 3250 nM | > 100 µM |  |  |
| Cc1ccc(N(C(=O)COc2cccc3c2OC(C)(C)C3)c2ccccc2)nn1 [Compound 89, 2-((2,2-Dimethyl-2,3-dihydrobenzofuran-7-yl)oxy)-N-(6-methylpyridazin-3-yl)-N-phenylacetamide] | 380 nM | > 100 µM |  |  |
| Cc1csc(N(C(=O)COc2cccc3c2OC(C)(C)C3)c2cnccn2)n1 [Compound 90] | > 25000 nM | > 100 µM | 31% | > 100 µM |
| Cc1csc(N(C(=O)COc2cccc3c2OC(C)(C)C3)c2ccccn2)n1 [Compound 91, 2-((2,2-Dimethyl-2,3-dihydrobenzofuran-7-yl)oxy)-N-(4-methylthiazol-2-yl)-N-(pyridin-2-yl)acetamide] | 890 nM | > 100 µM |  |  |
| Cc1ccc(N(C(=O)COc2cccc3c2OC(C)(C)C3)c2nc3c(s2)CCCC3)nn1 [Compound 92, 2-((2,2-Dimethyl-2,3-dihydrobenzofuran-7-yl)oxy)-N-(6-methylpyridazin-3-yl)-N-(4,5,6,7-tetrahydrobenzo[d]thiazol-2-yl)acetamide] | 25000 nM | > 100 µM |  |  |
| Cc1ccc(N(C(=O)COc2cccc3c2OC(C)(C)C3)c2nc(C)cs2)nn1 [Compound 93, 2-((2,2-Dimethyl-2,3-dihydrobenzofuran-7-yl)oxy)-N-(6-methylpyridazin-3-yl)-N-(4-methylthiazol-2-yl)acetamide] | > 25000 nM | > 100 µM | 65% | > 100 µM |
| CC1(C)Cc2cccc(OCC(=O)N(c3ccccc3)c3nc4c(s3)CCCC4)c2O1 [Compound 94, 2-((2,2-Dimethyl-2,3-dihydrobenzofuran-7-yl)oxy)-N-phenyl-N-(4,5,6,7-tetrahydrobenzo[d]thiazol-2-yl)acetamide] | 1.5 nM | > 125 µM |  |  |
| Cc1csc(N(C(=O)COc2cccc3c2OC(C)(C)C3)c2ccncc2)n1 [Compound 95, 2-((2,2-Dimethyl-2,3-dihydrobenzofuran-7-yl)oxy)-N-(4-methylthiazol-2-yl)-N-(pyridin-4-yl)acetamide] | 950 nM | > 125 µM |  |  |
| Cc1csc(N(C(=O)COc2cccc3c2OC(C)(C)C3)c2ccncn2)n1 [Compound 96, 2-((2,2-Dimethyl-2,3-dihydrobenzofuran-7-yl)oxy)-N-(4-methylthiazol-2-yl)-N-(pyrimidin-4-yl)acetamide] | > 25000 nM | > 125 µM | 32% | > 125 µM |
| Cc1csc(N(C(=O)COc2cccc3c2OC(C)(C)C3)c2cncnc2)n1 [Compound 97, 2-((2,2-Dimethyl-2,3-dihydrobenzofuran-7-yl)oxy)-N-(4-methylthiazol-2-yl)-N-(pyrimidin-5-yl)acetamide] | > 25000 nM | > 125 µM | 5.4% | > 125 µM |
| CC1(C)Cc2cccc(OCC(=O)N(c3ccccc3)c3nc4ccccc4s3)c2O1 [Compound 98, N-(Benzo[d]thiazol-2-yl)-2-((2,2-dimethyl-2,3-dihydrobenzofuran-7-yl)oxy)-N-phenylacetamide] | 29000 nM | > 90 µM |  |  |
| COC(=O)CN(C(=O)COc1cccc2c1OC(C)(C)C2)c1nc2c(s1)CCCC2 [Compound 99, Methyl 2-(2-((2,2-dimethyl-2,3-dihydrobenzofuran-7-yl)oxy)-N-(4,5,6,7-tetrahydrobenzo[d]thiazol-2-yl)acetamido)acetate] | 22000 nM | > 125 µM |  |  |
| CC1(C)Cc2cccc(OCC(=O)Nc3nc4c(-c5ccncc5)cccc4s3)c2O1 [Compound 101, 2-((2,2-dimethyl-2,3-dihydrobenzofuran-7-yl)oxy)-N-(4-(pyridin-4-yl)benzo[d]thiazol-2-yl)acetamide] | > 25000 nM | > 100 µM | 40% | > 100 µM |
| CC1(C)Cc2cccc(OCC(=O)Nc3nc4c(-c5ccc[nH]5)cccc4s3)c2O1 [Compound 102, N-(4-(1H-Pyrrol-2-yl)benzo[d]thiazol-2-yl)-2-((2,2-dimethyl-2,3-dihydrobenzofuran-7-yl)oxy)acetamide] | > 25000 nM | > 100 µM | 20% | > 100 µM |
| Cc1ccc(NC(=O)CCc2cccc3c2OC(C)(C)C3)nn1 [Compound 103, 3-(2,2-Dimethyl-2,3-dihydrobenzofuran-7-yl)-N-(6-methylpyridazin-3-yl) propanamide] | 1480 nM | > 100 µM |  |  |
| CC1(C)Cc2cccc(CCC(=O)N(Cc3ccccn3)c3nc4c(s3)CCCC4)c2O1 [Compound 104, 3-(2,2-Dimethyl-2,3-dihydrobenzofuran-7-yl)-N-(pyridin-2-ylmethyl)-N-(4,5,6,7-tetrahydrobenzo[d]thiazol-2-yl)propanamide] | 1100 nM | > 125 µM |  |  |
| CC1(C)Cc2cccc(CCC(=O)Nc3nc4c(s3)CCCC4)c2O1 [Compound 105, 3-(2,2-Dimethyl-2,3-dihydrobenzofuran-7-yl)-N-(4,5,6,7-tetrahydrobenzo[d]thiazol-2-yl)propanamide] | 390 nM | > 125 µM |  |  |

| SMILES | EC50 [1] | CC50 at 48 h (in vitro) | activity at 100 µM [1] | CC50 (in vitro) |
| --- | --- | --- | --- | --- |
| CN(C(=O)CCc1cccc2c1OC(C)(C)C2)c1nc2c(s1)CCCC2 [Compound 106, 3-(2,2-Dimethyl-2,3-dihydrobenzofuran-7-yl)-N-methyl-N-(4,5,6,7-tetrahydrobenzo[d]thiazol-2-yl)propanamide] | 420 nM | > 125 µM |  |  |
| CC1(C)Cc2cccc(CCC(=O)Nc3nc4c(F)cccc4s3)c2O1 [Compound 107, 3-(2,2-Dimethyl-2,3-dihydrobenzofuran-7-yl)-N-(4-fluorobenzo[d]thiazol-2-yl)propanamide] | 370 nM | > 100 µM |  |  |
| COc1ccccc1CCC(=O)N(C)c1nc2c(s1)CCCC2 [Compound 110, 3-(2-Methoxyphenyl)-N-methyl-N-(4,5,6,7-tetrahydrobenzo[d]thiazol-2-yl) propanamide] | 4100 nM | > 125 µM |  |  |
| CN(C(=O)COc1cccc2[nH]ccc12)c1nc2c(s1)CCCC2 [Compound 111, 2-((1H-Indol-4-yl)oxy)-N-methyl-N-(4,5,6,7-tetrahydrobenzo[d]thiazol-2-yl) acetamide] | 180 nM | > 125 µM |  |  |
| CCOc1ccccc1OCC(=O)N(C)c1nc2c(s1)CCCC2 [Compound 112, 2-(2-Ethoxyphenoxy)-N-methyl-N-(4,5,6,7-tetrahydrobenzo[d]thiazol-2-yl) acetamide] | 220 nM | > 125 µM |  |  |
| Cc1cccc(OCC(=O)N(C)c2nc3c(s2)CCCC3)c1F [Compound 113, 2-(2-Fluoro-3-methylphenoxy)-N-methyl-N-(4,5,6,7-tetrahydrobenzo[d]thiazol-2-yl)acetamide] | 550 nM | > 125 µM |  |  |
| Cc1cccc(OCC(=O)N(C)c2nc3c(s2)CCCC3)c1C [Compound 114, 2-(2,3-Dimethylphenoxy)-N-methyl-N-(4,5,6,7-tetrahydrobenzo[d]thiazol-2-yl)acetamide] | 1200 nM | > 125 µM |  |  |
| COc1cc(C)ccc1OCC(=O)N(C)c1nc2c(s1)CCCC2 [Compound 115, 2-(2-Methoxy-4-methylphenoxy)-N-methyl-N-(4,5,6,7-tetrahydrobenzo[d]thiazol-2-yl)acetamide] | 1800 nM | > 125 µM |  |  |
| COc1cccc(C)c1OCC(=O)N(C)c1nc2c(s1)CCCC2 [Compound 116, 2-(2-Methoxy-6-methylphenoxy)-N-methyl-N-(4,5,6,7-tetrahydrobenzo[d]thiazol-2-yl)acetamide] | 200 nM | > 125 µM |  |  |
| Cc1cccc(OCC(=O)N(C)c2nc3c(s2)CCCC3)c1Br [Compound 117, 2-(2-Bromo-3-methylphenoxy)-N-methyl-N-(4,5,6,7-tetrahydrobenzo[d]thiazol-2-yl)acetamide] | 950 nM | > 125 µM |  |  |
| COc1c(Br)cccc1OCC(=O)N(C)c1nc2c(s1)CCCC2 [Compound 118, 2-(3-Bromo-2-methoxyphenoxy)-N-methyl-N-(4,5,6,7-tetrahydrobenzo[d]thiazol-2-yl)acetamide] | 2100 nM | > 125 µM |  |  |
| COc1c(C)cccc1OCC(=O)N(C)c1nc2c(s1)CCCC2 [Compound 119, 2-(2-Methoxy-3-methylphenoxy)-N-methyl-N-(4,5,6,7-tetrahydrobenzo[d]thiazol-2-yl)acetamide] | 780 nM | > 125 µM |  |  |
| COc1c(OCC(=O)N(C)c2nc3c(s2)CCCC3)cccc1C1CC1 [Compound 120, 2-(3-Cyclopropyl-2-methoxyphenoxy)-N-methyl-N-(4,5,6,7-tetrahydrobenzo [d]thiazol-2-yl)acetamide] | 4800 nM | > 125 µM |  |  |
| COc1cccc(OCC(=O)N(C)c2nc3c(s2)CCCC3)c1 [Compound 121, 2-(3-Methoxyphenoxy)-N-methyl-N-(4,5,6,7-tetrahydrobenzo[d]thiazol-2-yl) acetamide] | 3900 nM | > 125 µM |  |  |
| COc1ccc(C)cc1OCC(=O)N(C)c1nc2c(s1)CCCC2 [Compound 122, 2-(2-Methoxy-5-methylphenoxy)-N-methyl-N-(4,5,6,7-tetrahydrobenzo[d]thiazol-2-yl)acetamide] | 5000 nM | > 125 µM |  |  |
| Cc1cc2c(OCC(=O)N(C)c3nc4c(s3)CCCC4)cccc2[nH]1 [Compound 123, N-Methyl-2-((2-methyl-1H-indol-4-yl)oxy)-N-(4,5,6,7-tetrahydrobenzo[d]thiazol-2-yl)acetamide] | 13 nM | > 125 µM |  |  |
| COc1cccc(F)c1OCC(=O)N(C)c1nc2c(s1)CCCC2 [Compound 124, 2-(2-Fluoro-6-methoxyphenoxy)-N-methyl-N-(4,5,6,7-tetrahydrobenzo[d]thiazol-2-yl)acetamide] | 260 nM | > 125 µM |  |  |
